Assay [1] concerns the target Cyclin-dependent kinase 1 (Homo sapiens, UniProt P06493). Put plainly: Inhibition of Cyclin-dependent kinase 1.
The target in assay [2] is Hepatocyte growth factor receptor (Homo sapiens, UniProt P08581). Briefly: Inhibition of Met proto-oncogene tyrosine kinase.
In assay [3] the target is cAMP-dependent protein kinase (PKA) (Homo sapiens, UniProt P22694+P17612+P22612). Briefly: Inhibition of Protein kinase A. It counts as protein assay.
The target of assay [4] is Insulin-like growth factor 1 receptor (Homo sapiens, UniProt P08069). Put plainly: Inhibition of Insulin-like growth factor I receptor.
The target of assay [5] is Vascular endothelial growth factor receptor 2 (Homo sapiens, UniProt P35968). Briefly: Inhibition of Vascular endothelial growth factor receptor 2.
Assay [6] concerns the target Mast/stem cell growth factor receptor Kit (Homo sapiens, UniProt P10721). Put plainly: Inhibition of Proto-oncogene tyrosine-protein kinase Kit.
The target of assay [7] is Vascular endothelial growth factor receptor 1 (Homo sapiens, UniProt P17948). Put plainly: Inhibition of vascular endothelial growth factor receptor 1.

pIC50: −log10 of the molar value.

Our source for the IC50 values is ChEMBL document CHEMBL1136193, “Identification of a new chemical class of potent angiogenesis inhibitors based on conformational considerations and database searching” (Bioorg Med Chem Lett, 2003).

The pIC50 is the negative decadic logarithm of the IC50, by convention in mol/L. Higher therefore signals a low IC50. As usually defined, the IC50 is the concentration needed to halve the response being measured.

Chain of Vascular endothelial growth factor receptor 2 (P35968 whole entry): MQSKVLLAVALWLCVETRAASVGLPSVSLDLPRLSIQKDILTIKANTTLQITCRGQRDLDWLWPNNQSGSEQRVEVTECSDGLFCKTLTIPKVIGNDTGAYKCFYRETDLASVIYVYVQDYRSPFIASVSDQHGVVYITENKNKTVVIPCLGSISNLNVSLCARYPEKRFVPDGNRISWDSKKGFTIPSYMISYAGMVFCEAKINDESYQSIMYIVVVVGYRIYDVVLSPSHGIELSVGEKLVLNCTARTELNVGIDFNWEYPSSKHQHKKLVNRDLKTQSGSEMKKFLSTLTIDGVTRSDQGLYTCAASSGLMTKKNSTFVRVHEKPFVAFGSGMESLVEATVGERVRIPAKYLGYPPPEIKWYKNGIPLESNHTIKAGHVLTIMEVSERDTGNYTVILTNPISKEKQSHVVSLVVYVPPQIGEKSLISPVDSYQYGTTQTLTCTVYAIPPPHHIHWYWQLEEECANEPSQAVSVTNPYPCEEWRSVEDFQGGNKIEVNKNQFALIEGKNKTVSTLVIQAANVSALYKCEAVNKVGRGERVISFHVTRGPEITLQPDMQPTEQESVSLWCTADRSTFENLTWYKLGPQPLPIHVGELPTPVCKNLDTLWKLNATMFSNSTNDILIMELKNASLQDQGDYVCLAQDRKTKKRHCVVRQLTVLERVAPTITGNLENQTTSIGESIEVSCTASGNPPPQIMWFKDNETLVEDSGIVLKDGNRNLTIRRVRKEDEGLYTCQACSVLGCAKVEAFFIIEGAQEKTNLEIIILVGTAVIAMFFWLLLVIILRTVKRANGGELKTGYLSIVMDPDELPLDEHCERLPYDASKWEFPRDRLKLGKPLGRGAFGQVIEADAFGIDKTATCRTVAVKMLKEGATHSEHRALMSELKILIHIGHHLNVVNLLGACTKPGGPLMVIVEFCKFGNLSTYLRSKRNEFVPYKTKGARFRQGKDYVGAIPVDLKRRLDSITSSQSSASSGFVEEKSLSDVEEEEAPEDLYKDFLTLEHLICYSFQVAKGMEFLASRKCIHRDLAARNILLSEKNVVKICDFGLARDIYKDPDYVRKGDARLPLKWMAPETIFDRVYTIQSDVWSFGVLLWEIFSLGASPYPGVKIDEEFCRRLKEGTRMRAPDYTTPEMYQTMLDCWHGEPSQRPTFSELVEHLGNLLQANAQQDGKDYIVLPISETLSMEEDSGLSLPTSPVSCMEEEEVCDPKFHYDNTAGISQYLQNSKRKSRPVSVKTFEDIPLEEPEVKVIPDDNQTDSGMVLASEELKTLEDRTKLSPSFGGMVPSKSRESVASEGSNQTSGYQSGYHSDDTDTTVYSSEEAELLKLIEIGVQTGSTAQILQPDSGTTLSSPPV
Chain of Mast/stem cell growth factor receptor Kit (P10721 whole entry): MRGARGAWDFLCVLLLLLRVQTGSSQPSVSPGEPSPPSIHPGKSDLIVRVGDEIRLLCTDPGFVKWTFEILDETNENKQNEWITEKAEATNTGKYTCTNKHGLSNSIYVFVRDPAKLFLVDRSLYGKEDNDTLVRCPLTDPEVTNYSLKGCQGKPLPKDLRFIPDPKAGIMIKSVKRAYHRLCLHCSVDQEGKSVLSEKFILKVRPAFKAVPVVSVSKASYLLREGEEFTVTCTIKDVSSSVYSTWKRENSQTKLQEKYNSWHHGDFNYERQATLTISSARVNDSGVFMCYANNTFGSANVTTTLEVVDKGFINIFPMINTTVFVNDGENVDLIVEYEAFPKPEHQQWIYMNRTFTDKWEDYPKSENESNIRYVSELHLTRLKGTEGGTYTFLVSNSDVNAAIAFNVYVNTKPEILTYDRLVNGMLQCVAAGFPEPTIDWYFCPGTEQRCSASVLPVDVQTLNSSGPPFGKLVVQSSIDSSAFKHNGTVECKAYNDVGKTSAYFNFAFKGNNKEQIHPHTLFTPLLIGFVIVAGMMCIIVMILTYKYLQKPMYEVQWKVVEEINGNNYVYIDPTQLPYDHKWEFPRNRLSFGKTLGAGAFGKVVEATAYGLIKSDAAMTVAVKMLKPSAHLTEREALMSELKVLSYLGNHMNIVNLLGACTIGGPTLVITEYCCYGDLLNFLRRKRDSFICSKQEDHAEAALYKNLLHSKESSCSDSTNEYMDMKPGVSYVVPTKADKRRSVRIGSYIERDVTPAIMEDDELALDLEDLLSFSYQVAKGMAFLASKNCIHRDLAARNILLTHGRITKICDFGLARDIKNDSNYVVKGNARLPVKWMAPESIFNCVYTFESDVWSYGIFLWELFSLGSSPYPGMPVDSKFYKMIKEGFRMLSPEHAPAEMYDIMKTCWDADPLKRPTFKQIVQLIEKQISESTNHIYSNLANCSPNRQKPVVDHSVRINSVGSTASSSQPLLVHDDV
Chain of Hepatocyte growth factor receptor (P08581 whole entry): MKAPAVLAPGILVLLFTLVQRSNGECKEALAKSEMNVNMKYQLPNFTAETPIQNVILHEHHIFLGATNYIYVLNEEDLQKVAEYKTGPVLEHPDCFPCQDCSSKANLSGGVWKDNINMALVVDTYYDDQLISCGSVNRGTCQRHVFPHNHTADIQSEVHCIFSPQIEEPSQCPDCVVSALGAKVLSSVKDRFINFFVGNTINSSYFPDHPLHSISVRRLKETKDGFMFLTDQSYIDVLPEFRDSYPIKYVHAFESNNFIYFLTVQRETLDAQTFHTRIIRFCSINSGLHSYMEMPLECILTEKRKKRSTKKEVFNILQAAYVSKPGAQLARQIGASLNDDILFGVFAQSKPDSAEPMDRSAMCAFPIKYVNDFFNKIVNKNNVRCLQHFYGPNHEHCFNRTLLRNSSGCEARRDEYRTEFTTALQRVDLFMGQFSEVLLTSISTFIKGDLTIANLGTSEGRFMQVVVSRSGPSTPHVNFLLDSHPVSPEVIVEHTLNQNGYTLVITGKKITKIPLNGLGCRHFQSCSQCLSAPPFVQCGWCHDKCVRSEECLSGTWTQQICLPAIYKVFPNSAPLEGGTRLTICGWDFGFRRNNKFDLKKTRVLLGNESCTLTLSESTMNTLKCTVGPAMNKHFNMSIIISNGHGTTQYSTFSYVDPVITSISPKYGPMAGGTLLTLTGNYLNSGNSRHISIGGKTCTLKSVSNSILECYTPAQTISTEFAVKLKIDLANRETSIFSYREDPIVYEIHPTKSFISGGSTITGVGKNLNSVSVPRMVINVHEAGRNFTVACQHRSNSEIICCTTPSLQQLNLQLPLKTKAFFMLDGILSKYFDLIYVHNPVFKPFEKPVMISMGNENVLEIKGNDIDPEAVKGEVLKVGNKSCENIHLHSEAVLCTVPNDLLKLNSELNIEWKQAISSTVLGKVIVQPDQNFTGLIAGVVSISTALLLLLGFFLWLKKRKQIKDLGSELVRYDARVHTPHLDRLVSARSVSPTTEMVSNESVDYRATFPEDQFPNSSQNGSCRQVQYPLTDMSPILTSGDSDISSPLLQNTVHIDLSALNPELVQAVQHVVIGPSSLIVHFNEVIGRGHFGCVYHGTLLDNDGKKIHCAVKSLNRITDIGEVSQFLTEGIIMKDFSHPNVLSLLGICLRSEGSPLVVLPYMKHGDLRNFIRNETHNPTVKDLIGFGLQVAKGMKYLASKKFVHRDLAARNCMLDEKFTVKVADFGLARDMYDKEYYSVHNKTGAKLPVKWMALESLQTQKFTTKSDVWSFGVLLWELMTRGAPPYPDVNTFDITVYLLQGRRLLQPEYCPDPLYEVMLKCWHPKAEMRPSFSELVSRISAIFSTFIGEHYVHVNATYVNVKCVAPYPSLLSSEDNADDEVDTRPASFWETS
Chain of Insulin-like growth factor 1 receptor (P08069 31-736 limits assumed): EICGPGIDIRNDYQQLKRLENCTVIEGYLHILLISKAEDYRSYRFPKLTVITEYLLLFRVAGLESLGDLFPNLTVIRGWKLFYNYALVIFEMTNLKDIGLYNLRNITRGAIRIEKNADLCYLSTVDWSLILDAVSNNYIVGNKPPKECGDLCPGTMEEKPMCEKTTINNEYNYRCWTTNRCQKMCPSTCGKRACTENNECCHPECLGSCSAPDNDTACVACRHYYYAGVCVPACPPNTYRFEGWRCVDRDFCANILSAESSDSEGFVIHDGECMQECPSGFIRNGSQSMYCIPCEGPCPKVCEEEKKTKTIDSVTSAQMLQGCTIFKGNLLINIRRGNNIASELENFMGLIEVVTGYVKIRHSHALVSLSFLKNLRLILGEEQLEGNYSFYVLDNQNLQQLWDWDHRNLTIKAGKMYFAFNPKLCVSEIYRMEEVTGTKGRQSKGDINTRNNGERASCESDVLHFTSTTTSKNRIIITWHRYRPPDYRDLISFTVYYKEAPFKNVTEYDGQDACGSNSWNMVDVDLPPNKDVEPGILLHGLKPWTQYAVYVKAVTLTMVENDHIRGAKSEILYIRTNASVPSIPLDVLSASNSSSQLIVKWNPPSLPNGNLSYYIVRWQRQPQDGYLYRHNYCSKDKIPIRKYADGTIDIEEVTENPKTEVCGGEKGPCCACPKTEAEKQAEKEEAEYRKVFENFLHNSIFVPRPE
Chain of Insulin-like growth factor 1 receptor (P08069 741-1367 limits assumed): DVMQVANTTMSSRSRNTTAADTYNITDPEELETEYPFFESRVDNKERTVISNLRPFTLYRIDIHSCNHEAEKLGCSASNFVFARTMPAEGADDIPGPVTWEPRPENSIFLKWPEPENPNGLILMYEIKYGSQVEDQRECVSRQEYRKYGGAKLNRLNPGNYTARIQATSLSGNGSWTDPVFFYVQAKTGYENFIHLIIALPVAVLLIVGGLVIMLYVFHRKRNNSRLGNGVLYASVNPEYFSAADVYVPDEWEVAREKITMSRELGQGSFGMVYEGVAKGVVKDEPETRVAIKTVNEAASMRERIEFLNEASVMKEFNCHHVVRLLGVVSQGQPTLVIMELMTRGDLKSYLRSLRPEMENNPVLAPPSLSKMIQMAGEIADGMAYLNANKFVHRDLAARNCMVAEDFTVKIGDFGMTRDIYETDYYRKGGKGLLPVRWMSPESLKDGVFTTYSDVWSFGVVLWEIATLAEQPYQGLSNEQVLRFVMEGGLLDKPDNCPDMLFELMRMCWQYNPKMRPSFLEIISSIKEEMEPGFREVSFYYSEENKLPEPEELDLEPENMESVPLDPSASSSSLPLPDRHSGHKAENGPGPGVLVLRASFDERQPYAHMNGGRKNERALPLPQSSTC

In the case of `O=C(Nc1ccc(Cl)cc1)c1ccccc1NCc1ccncc1`, the pIC50 in assay [1] was less than 5.00; in assay [2], less than 5.00; in assay [4], less than 5.00; in assay [5] it was 7.70; in assay [6], 6.62. This compound came in with an IC50 in assay [3] greater than 10 µM.
`O=C(Nc1ccccc1F)c1ccccc1NCc1ccc(F)cc1`: the pIC50 in assay [7] is 4.64; in assay [5], 5.43.
